Columns and labels:
[1] = tested on: integrins; conditions: cited from earlier work
[2] = tested on: human lung fibroblasts (HFL-1 cells); assay: Thrombin-induced proliferation of HFL-1 cells after antisense (PAR-1) transfection; format: cell-based
Protocol: Thrombin stimulates proliferation of human lung fibroblasts. Thrombin-treated human lung fibroblasts (HFL-1 cells) proliferated 53% in response to thrombin. 24 hours before treatment with thrombin, HFL-1 cells were treated with an LID complex comprising [K]16-peptide 6, lipofectin and a 20-mer antisense oligonucleotide directed against the thrombin receptor PAR-1 in the optimal ratio and mixing order prepared as described in the Materials and Methods section and the Examples above. The antisense oligonucleotide-containing complex was in contact with the cells for 4 hours. 24 hours after the start of the treatment with the complex, treatment with thrombin was carried out.

[3] = tested on: Human airway epithelial (HAE) cells; assay: BrdU labelling of HAE cells, Example 13; format: cell-based
Protocol: Bromodeoxyuridine (BrdU) labelling enables assessment of cell proliferation. BrdU kits are available from Zymed Laboratories, Inc., South San Francisco, Calif., U.S.A. BrdU was added to the cells at the same time as the transfection reagent and was maintained throughout the rest of the experiment until cell harvesting.

[4] = tested on: 1HAEo-cells; assay: BrdU incorporation by flow cytometry, 1HAEo- cells; format: cell-based, human; conditions: EGTA 2 mM, aphidicolin 10 μg/ml where present
Protocol: A BrdU Labelling and Detection Kit (Roche, Basel, Switzerland) was used, which contains the BrdU labelling reagent and the monoclonal mouse anti-BrdU. […] Cells were washed with PBS and incubated with a second layer antibody, Texas Red labelled horse anti-mouse IgG (Vector Laboratories, Peterborough, UK), for 30 minutes at 37° C. and then analysed by flow cytometry at the wavelength of 575±20 nm as detailed above. In some experiments, aphidicolin, a cell-proliferation inhibitor blocking the cell cycle in S-phase, was added to the cells to observe the effects on transfection efficiency.

[5] = tested on: ECV304 cells; assay: Luciferase (pGL2) transfection of ECV304 cells; format: cell-based, human; conditions: LID complexes, 40 μg total [K]16-peptide; luciferase after 48 hours
Protocol: Cells were seeded into 24-well plates at 5×10^4 cells per well then incubated overnight at 37° C. in complete growth medium. The following day, transfection complexes were made from the following stock solutions, all prepared in OptiMEM (Life Technologies, Paisley, U. K.), lipofectin (an equimolar mixture of the cationic lipid N-[1-(2,3-dioleyloxy)propyl]-N,N,N-trimethylammonium chloride (DOTMA) and the neutral lipid dioleoyl phosphatidylethanolamine (DOPE), obtained as “Lipofectin” from Life Technologies, Paisley, U.K.) (1 mg/ml), pGL2-control (1 mg/100 ml) and [K]16]/integrin-targeting peptide 1, 5 or 6 (0.1 mg/ml).
Complexes were made usually with three components: oligolysine-peptide (I), plasmid DNA or RNA (D) and lipofectin (L), by mixing together the different components with an automatic pipette. […]
Cells transformed with pGL2 were washed twice with PBS to remove serum then 100 microlitres of Reporter Lysis Buffer (Promega, Madison, Wis, U.S.A.) was added to each well and placed at […] for 15 to 30 minutes. […] Total light emission was measured for 60 seconds on an LKB 1251 Luminometer (Labtech, Uckfield, U.K.). The protein concentration of each sample was then determined with Protein Assay Reagent (BioRad, Hercules, Calif., U.S.A.) and luciferase enzyme activity expressed in terms of relative light units per milligram of protein (RLU/mg). […]

GACDCRGDCFCA [Peptide 5]
integrin specificity [1]: (αv)

thrombin
proliferation in response to thrombin [2]: 53%

O=c1[nH]c(=O)n([C@H]2C[C@H](O)[C@@H](CO)O2)cc1Br [BrdU, 5-Bromo-2′-deoxy-uridine]
BrdU labelling, Confluent cells [3]: 7.1% | BrdU labelling, Sub-confluent cells [3]: 44.4% | BrdU-positive cells, confluent 1HAEo- cells [4]: 7.1% | BrdU-positive cells, sub-confluent 1HAEo- cells [4]: 43.0%

C[C@@]1(CO)[C@H](O)CC[C@@]2(C)[C@H]1CC[C@H]1C[C@@H]3C[C@@]12CC[C@]3(O)CO [aphidicolin, Aphidicolin]
BrdU-positive cells, confluent 1HAEo- cells [4]: 5% | BrdU-positive cells, sub-confluent 1HAEo- cells [4]: 7%

[K]16GACRRETAWACG (KKKKKKKKKKKKKKKKGACRRETAWACG) [oligolysine-peptide 6]
transfection efficiency with increasing amounts of oligolysine-peptide 6 replacing [K]16 [5]: apparently exponential increase

Source: patent publication US20040014217A1, “Methods of transfection” (priority 2000, published 2004)
